Data from patent publication US20220235034A1, “SELECTIVE HISTAMINE H3 RECEPTOR ANTAGONISTS FOR TREATING AUTISM SPECTRUM DISORDER” (RICHTER GEDEON NYRT., priority 2019, published 2022).
Entries after “also recorded” stand apart in the source; their conditions may differ.

How the values were obtained:
[1] = test system: prenatally valproate-exposed rat pups; test: maternal deprivation-induced ultrasonic vocalization in prenatally valproate-exposed rat pups; format: in vivo; conditions: 0.01-1 mg/kg oral, co-administered with oral risperidone 0.003 mg/kg; prenatal valproate 300 mg/kg
Protocol: Maternal deprivation-induced ultrasonic vocalization in rat pups is a readout of socio-communicational function that is impaired in offspring after prenatal exposure to VPA (Gandal et al., Biol. Psychiatry 2010, 68, 1100-1106). To induce ultrasonic calls, prenatally VPA treated rat pups are placed individually into a cage where calls are being recorded with bat microphones. Calls are digitized with an audio filter and ultrasonic vocalization is recorded and quantified with SonoTrack software (Metris bv. The Netherlands). Baseline vocalization is measured on postnatal days 11-12 days for 10 min. Animals are divided into homogenous groups based on baseline vocalizations. On postnatal day 13, animals are treated p.o. with the appropriate doses of drug or vehicle 60 min before measurement and then returned to their nests until recording. Ultrasonic call counts are recorded for 10 min. Statistical analysis is performed on ultrasonic call counts with the non-parametric Kruskal-Wallis test and the post hoc Dunnett test.
The behavioral effect of the co-administration of 1-[4-(4-{3-[(2R)-2-methyl-pyrrolidin-1-yl]-propoxy)-phenoxy)-piperidin-1-yl]-ethan-1-one dicitrate and risperidone was studied in prenatally valproate-exposed (300 mg/kg) rat pups on ultrasound emissions induced by separation from their mothers. […]

[2] = test system: prenatally valproate-treated rats; test: social preference in the 3-chamber apparatus in prenatally valproate-treated rats; format: in vivo, rat; conditions: postnatal day 59
Protocol: (§1) In this method, time-mated female Wistar rats are administered a single dose of VPA (600 mg/kg, i.p.) on gestational day 12.5. Offspring are housed according to standard laboratory conditions until time of behavioral testing. Animals are housed in groups of 4 in conventional cages and maintained at 22-24° C. on a standard 12 hours light/dark cycle, with food and water available ad libitum. After investigational drug treatment, offspring are examined behaviorally in tests relevant for the assessment of autistic behavior. These tests include social play, social preference and social recognition memory. These tests are suitable to assess behavioral elements that represent core ASD symptoms in experimental animals. Efficaciousness of an investigational compound (ie. improvement of behavioral deficits induced by prenatal VPA exposure) may indicate usefulness in the pharmacotherapy of core symptoms of ASD. Doses of the investigational drug were corrected for the dicitrate salt with a correction factor of 2.07 and are expressed as free base. Reference is herein made to a parallel patent application filed by the applicant with the title of “Selective histamine H3 receptor antagonist acid addition salts and process for the preparation thereof” wherein the salts, including dicitrate salt is disclosed in detail.
The social preference and recognition memory assays in a 3-chamber apparatus are further indicators of intact social behavior in rats. The preference of a conspecific over an inanimate object as well as the ability to distinguish between familiar and novel conspecifics are necessary for normal social functioning and are defective in the prenatal VPA model in rats (Bambini-Junior et al., Brain Res. 2011, 1408:8-16). […] On postnatal day 59, prenatally VPA-treated rats are assessed for their social preference following 8 days of per os treatment with the test compound. On postnatal day 60, the same rats are assessed for their social recognition memory after 9 days of per os treatment with the test compound. […]

[3] = test system: prenatally valproate-treated rats; test: social recognition memory in the 3-chamber apparatus in prenatally valproate-treated rats; format: in vivo, rat; conditions: postnatal day 60
Protocol: In this method, time-mated female Wistar rats are administered a single dose of VPA (600 mg/kg, i.p.) on gestational day 12.5. Offspring are housed according to standard laboratory conditions until time of behavioral testing. Animals are housed in groups of 4 in conventional cages and maintained at 22-24° C. on a standard 12 hours light/dark cycle, with food and water available ad libitum. After investigational drug treatment, offspring are examined behaviorally in tests relevant for the assessment of autistic behavior. These tests include social play, social preference and social recognition memory. These tests are suitable to assess behavioral elements that represent core ASD symptoms in experimental animals. […] Doses of the investigational drug were corrected for the dicitrate salt with a correction factor of 2.07 and are expressed as free base. […]
The social preference and recognition memory assays in a 3-chamber apparatus are further indicators of intact social behavior in rats. […] On postnatal day 59, prenatally VPA-treated rats are assessed for their social preference following 8 days of per os treatment with the test compound. On postnatal day 60, the same rats are assessed for their social recognition memory after 9 days of per os treatment with the test compound. […]

[4] = test system: prenatally valproate-treated rats; test: social play assay in prenatally valproate-treated rats; format: in vivo, rat; conditions: postnatal day 30
Protocol: as §1
Social play is a type of social interaction that is highly typical of adolescent mammals including rodents as well as humans (Vanderschuren and Trezza, Curr. Topics Behav. Neurosci. 2014, 16:189-212). Social play behavior is indicative of healthy social functioning in adult life and is defective after prenatal VPA treatment in the offspring (Schneider and Przewlocki Neuropsychopharmacology 2005, 30:80-89). At postnatal day 30, following 8 days treatment with the test compound, prenatally VPA-treated rats are evaluated for juvenile play behavior. The test is carried out in a test arena unknown to the rats with pairs of animals from the same treatment group over a 15 min trial. Animals are scored for duration of social play behavior. […]

[5] = test system: prenatal valproate exposure model; conditions: dose of risperidone applied in the present study (0.003 mg/kg); cited from earlier work

SMILES | reversal of the socio-communicational defect (ultrasound emissions induced by separation from mothers) [1] | effect on social preference versus VPA+VEH ([2]; 0.1 mg/kg per os once daily for 8 days) | effect on social preference versus VPA+VEH ([2]; 1 mg/kg per os once daily for 8 days, dicitrate) | reversal of the social preference deficit induced by prenatal valproate treatment ([2]; per os once daily for 8 days, doses 0.01, 0.1 and 1 mg/kg) | effect on social recognition memory versus VPA+VEH familiar ([3]; 1 mg/kg per os once daily for 9 days, dicitrate) | reversal of the social recognition deficit induced by prenatal valproate treatment ([3]; per os once daily for 9 days, doses 0.01, 0.1 and 1 mg/kg) | significance of effect on social play versus VPA+VEH ([4]; 0.1 mg/kg per os once daily for 8 days, dicitrate) | significance of effect on social play versus VPA+VEH ([4]; 1 mg/kg per os once daily for 8 days) | reversal of the social play deficit induced by prenatal valproate treatment (duration of social play behavior) ([4]; per os once daily for 8 days, doses 0.01, 0.1 and 1 mg/kg (as free base), dicitrate) | efficacy signal in the prenatal valproate exposure model [5]
CC(=O)N1CCC(Oc2ccc(OCCCN3CCC[C@H]3C)cc2)CC1 [1-[4-(4-{3-[(2R)-2-methylpyrrolidin-1-yl]-propoxy}-phenoxy)-piperidin-1-yl]-ethan-1-on dicitrate] | dose-proportionally reversed the socio-communicational defect | statistically significant | statistically significant; also recorded: fully reversed social preference deficits | reversed the social preference deficit | statistically significant; also recorded: fully reversed social recognition memory deficits | reversed the social recognition deficit | statistically significant; also recorded: reaching significance | statistically significant | reversed the social play deficit; also recorded: partially reversed social play deficits | 
Cc1nc2n(c(=O)c1CCN1CCC(c3noc4cc(F)ccc34)CC1)CCCC2 [risperidone] |  |  |  |  |  |  |  |  |  | produce an efficacy signal
